# Measurements as given in patent publication US20240368113A1, “AMIDE COMPOUND AND USE THEREOF” (Chengdu Fendi Pharmaceutical Co. Ltd., priority 2021, published 2024).
# pIC50: −log10 of the molar value.
# Test system: MV-4-11 cells
# Assay: Inhibition of tumor cell proliferation (CellTiter-Glo)
# Type: cell-based
# Details: Homo sapiens, MV4-11, 72 h, read-out: IC50 of inhibitory activity of tumor cell proliferation
# Protocol: MV-4-11 cells were diluted with medium (RPM1640+10% FBS+1% PS) and plated at 4000 cells/well in a white-walled clear-bottom 96-well plate. MV-4-11 cells were plated and incubated in a 5% CO2, 37° C. incubator for 2 hours. Cells were treated with the indicated concentration of compound or DMSO (control), and placed in a 5% CO2, 37° C. incubator for 72 h after dosing. After the end of the culture, equilibrate at room temperature for 30 min, add 100 μl of CellTiter-Glo® Reagent to each well, and shake the microplate shaker for 2 min. After 10 min of incubation at room temperature, the luminescence was measured by a microplate reader, and the cell-free wells were used as the background wells. CC-90009 (celegen patent phase I) was used as a control, and its structural formula was as follows: 0
row,SMILES,pIC50
1,O=C(C#Cc1ccc(OC(=O)N2CCC(N3CCCCC3)CC2)cc1)NCc1ccc2c(c1)CN(C1CCC(=O)NC1=O)C2=O (stereo not drawn) [Compound 72],< 7.00
2,O=C(C#Cc1ccccc1OC(=O)N1CCC(N2CCCCC2)CC1)NCc1ccc2c(c1)CN(C1CCC(=O)NC1=O)C2=O (stereo not drawn) [Compound 74],< 7.00

# Same assay, conditions: Homo sapiens, MV4-11; MV-4-11 cells, 72 h, CellTiter-Glo; read-out: IC50 of inhibitory activity of tumor cell proliferation
row,SMILES,pIC50
1,O=C(C#Cc1ccc(CC(F)F)cc1)NCc1ccc2c(c1)CN(C1CCC(=O)NC1=O)C2=O (stereo not drawn) [Compound 2],> 9.00
2,O=C(C#Cc1ccc(Cl)cc1F)NCc1ccc2c(c1)CN(C1CCC(=O)NC1=O)C2=O (stereo not drawn) [Compound 4],> 9.00
3,O=C(C#Cc1ccc(F)cc1F)NCc1ccc2c(c1)CN(C1CCC(=O)NC1=O)C2=O (stereo not drawn) [Compound 10],> 9.00
4,Cc1cc(F)c(C#CC(=O)NCc2ccc3c(c2)CN(C2CCC(=O)NC2=O)C3=O)c(F)c1 (stereo not drawn) [Compound 13],> 9.00
5,O=C1CCC(N2Cc3cc(CNC(=O)/C(F)=C/c4cccc(F)c4)ccc3C2=O)C(=O)N1 (stereo not drawn) [Compound 14],< 7.00
6,O=C(C#Cc1cccc(O)c1)NCc1ccc2c(c1)CN(C1CCC(=O)NC1=O)C2=O (stereo not drawn) [Compound 19],8.00 to 9.00
7,C[Si](C)(C)C#CC(=O)NCc1ccc2c(c1)CN(C1CCC(=O)NC1=O)C2=O (stereo not drawn) [Compound 20],< 7.00
8,CC(C)(C)[Si](C)(C)OCC#CC(=O)NCc1ccc2c(c1)CN(C1CCC(=O)NC1=O)C2=O (stereo not drawn) [Compound 21],> 9.00
9,O=C(C#CCO)NCc1ccc2c(c1)CN(C1CCC(=O)NC1=O)C2=O (stereo not drawn) [Compound 22],< 7.00
10,O=C(C#Cc1ccncc1)NCc1ccc2c(c1)CN(C1CCC(=O)NC1=O)C2=O (stereo not drawn) [Compound 23],< 7.00
11,O=C(C#Cc1ccc2c(c1)OCO2)NCc1ccc2c(c1)CN(C1CCC(=O)NC1=O)C2=O (stereo not drawn) [Compound 24],> 9.00
12,CC(C)(C)OC(=O)c1ccc(C#CC(=O)NCc2ccc3c(c2)CN(C2CCC(=O)NC2=O)C3=O)cc1 (stereo not drawn) [Compound 25],> 9.00
13,O=C(C#Cc1ccc(Cl)cn1)NCc1ccc2c(c1)CN(C1CCC(=O)NC1=O)C2=O (stereo not drawn) [Compound 27],8.00 to 9.00
14,Cc1ccc(C#CC(=O)NCc2ccc3c(c2)CN(C2CCC(=O)NC2=O)C3=O)nc1 (stereo not drawn) [Compound 28],8.00 to 9.00
15,CCOC(=O)c1ccc(C#CC(=O)NCc2ccc3c(c2)CN(C2CCC(=O)NC2=O)C3=O)nc1 (stereo not drawn) [Compound 29],< 7.00
16,COc1ccc(C#CC(=O)NCc2ccc3c(c2)CN(C2CCC(=O)NC2=O)C3=O)nc1 (stereo not drawn) [Compound 30],8.00 to 9.00
17,CC(=O)Oc1ccc(C#CC(=O)NCc2ccc3c(c2)CN(C2CCC(=O)NC2=O)C3=O)cc1 (stereo not drawn) [Compound 32],8.00 to 9.00
18,Cn1cnc(C#CC(=O)NCc2ccc3c(c2)CN(C2CCC(=O)NC2=O)C3=O)c1 (stereo not drawn) [Compound 33],< 7.00
19,O=C(C#Cc1ccc(C(F)(F)F)cn1)NCc1ccc2c(c1)CN(C1CCC(=O)NC1=O)C2=O (stereo not drawn) [Compound 34],7.00 to 8.00
20,Cn1ccc(C#CC(=O)NCc2ccc3c(c2)CN(C2CCC(=O)NC2=O)C3=O)n1 (stereo not drawn) [Compound 35],7.00 to 8.00
21,O=C(C#Cc1cnccn1)NCc1ccc2c(c1)CN(C1CCC(=O)NC1=O)C2=O (stereo not drawn) [Compound 37],< 7.00

row,SMILES,pIC50
1,O=C(C#Cc1cnc(Cl)cc1Cl)NCc1ccc2c(c1)CN(C1CCC(=O)NC1=O)C2=O (stereo not drawn) [Compound 39],8.00 to 9.00
2,O=C(C#Cc1cccc(Cl)n1)NCc1ccc2c(c1)CN(C1CCC(=O)NC1=O)C2=O (stereo not drawn) [Compound 40],8.00 to 9.00
3,N#Cc1ccc(C#CC(=O)NCc2ccc3c(c2)CN(C2CCC(=O)NC2=O)C3=O)cn1 (stereo not drawn) [Compound 42],< 7.00
4,N#Cc1ncccc1C#CC(=O)NCc1ccc2c(c1)CN(C1CCC(=O)NC1=O)C2=O (stereo not drawn) [Compound 43],< 7.00
5,Cn1nccc1C#CC(=O)NCc1ccc2c(c1)CN(C1CCC(=O)NC1=O)C2=O (stereo not drawn) [Compound 44],< 7.00
6,COc1cccc(C#CC(=O)NCc2ccc3c(c2)CN(C2CCC(=O)NC2=O)C3=O)c1 (stereo not drawn) [Compound 46],> 9.00
7,Nc1ccc(C#CC(=O)NCc2ccc3c(c2)CN(C2CCC(=O)NC2=O)C3=O)c(F)c1 (stereo not drawn) [Compound 48],8.00 to 9.00
8,O=C(C#Cc1ccc(F)cc1[N+](=O)[O-])NCc1ccc2c(c1)CN(C1CCC(=O)NC1=O)C2=O (stereo not drawn) [Compound 49],8.00 to 9.00
9,Cc1ccc(C#CC(=O)NCc2ccc3c(c2)CN(C2CCC(=O)NC2=O)C3=O)cc1N (stereo not drawn) [Compound 52],> 9.00
10,O=C(C#Cc1ccc(F)c([N+](=O)[O-])c1)NCc1ccc2c(c1)CN(C1CCC(=O)NC1=O)C2=O (stereo not drawn) [Compound 53],7.00 to 8.00
11,O=C(C#Cc1ccc(O)cc1)NCc1ccc2c(c1)CN(C1CCC(=O)NC1=O)C2=O (stereo not drawn) [Compound 57],7.00 to 8.00
12,O=C(C#Cc1ccc(C(F)(F)F)nc1)NCc1ccc2c(c1)CN(C1CCC(=O)NC1=O)C2=O (stereo not drawn) [Compound 60],7.00 to 8.00
13,O=C(C#CC1CC1)NCc1ccc2c(c1)CN(C1CCC(=O)NC1=O)C2=O (stereo not drawn) [Compound 61],< 7.00
14,O=C(C#CC1CCCCC1)NCc1ccc2c(c1)CN(C1CCC(=O)NC1=O)C2=O (stereo not drawn) [Compound 62],> 9.00
15,O=C(C#CC1CCCCN1)NCc1ccc2c(c1)CN(C1CCC(=O)NC1=O)C2=O (stereo not drawn) [Compound 64],< 7.00
16,O=C(C#Cc1c(O)cccc1Cl)NCc1ccc2c(c1)CN(C1CCC(=O)NC1=O)C2=O (stereo not drawn) [Compound 65],8.00 to 9.00
17,O=C(C#Cc1c(Cl)ccnc1Cl)NCc1ccc2c(c1)CN(C1CCC(=O)NC1=O)C2=O (stereo not drawn) [Compound 66],8.00 to 9.00
18,Cc1ccnc(Cl)c1C#CC(=O)NCc1ccc2c(c1)CN(C1CCC(=O)NC1=O)C2=O (stereo not drawn) [Compound 67],8.00 to 9.00
19,CC(C)(C)OC(=O)c1cccc(C#CC(=O)NCc2ccc3c(c2)CN(C2CCC(=O)NC2=O)C3=O)c1 (stereo not drawn) [Compound 70],> 9.00
20,CC(C)C(=O)Oc1ccccc1C#CC(=O)NCc1ccc2c(c1)CN(C1CCC(=O)NC1=O)C2=O (stereo not drawn) [Compound 73],8.00 to 9.00

# More lines, now with the values ahead:
row,pIC50,SMILES
1,> 9.00,O=C(C#Cc1ccc(F)cc1)NCc1ccc2c(c1)CN(C1CCC(=O)NC1=O)C2=O (stereo not drawn) [Compound 3]
2,> 9.00,O=C(C#Cc1cccs1)NCc1ccc2c(c1)CN(C1CCC(=O)NC1=O)C2=O (stereo not drawn) [Compound 6]
3,> 9.00,O=C(C#Cc1ccc(Cl)cc1)NCc1ccc2c(c1)CN(C1CCC(=O)NC1=O)C2=O (stereo not drawn) [Compound 7]
4,> 9.00,O=C(C#Cc1ccccc1Cl)NCc1ccc2c(c1)CN(C1CCC(=O)NC1=O)C2=O (stereo not drawn) [Compound 8]
5,> 9.00,O=C(C#Cc1c(F)cccc1F)NCc1ccc2c(c1)CN(C1CCC(=O)NC1=O)C2=O (stereo not drawn) [Compound 9]
6,> 9.00,O=C(C#Cc1ccccc1)NCc1ccc2c(c1)CN(C1CCC(=O)NC1=O)C2=O (stereo not drawn) [Compound 11]
7,8.00 to 9.00,O=C(/C=C/c1ccccc1)NCc1ccc2c(c1)CN(C1CCC(=O)NC1=O)C2=O (stereo not drawn) [Compound 15]
8,7.00 to 8.00,O=C(C#Cc1cccnc1)NCc1ccc2c(c1)CN(C1CCC(=O)NC1=O)C2=O (stereo not drawn) [Compound 16]
9,> 9.00,O=C(C#Cc1cccc(Br)c1)NCc1ccc2c(c1)CN(C1CCC(=O)NC1=O)C2=O (stereo not drawn) [Compound 18]
10,< 7.00,O=C(C#Cc1ccc(C(=O)O)cc1)NCc1ccc2c(c1)CN(C1CCC(=O)NC1=O)C2=O (stereo not drawn) [Compound 26]
11,7.00 to 8.00,Cc1ccc(C#CC(=O)NCc2ccc3c(c2)CN(C2CCC(=O)NC2=O)C3=O)cn1 (stereo not drawn) [Compound 31]
12,> 9.00,Cc1ccc(C#CC(=O)NCc2ccc3c(c2)CN(C2CCC(=O)NC2=O)C3=O)s1 (stereo not drawn) [Compound 36]
13,8.00 to 9.00,O=C(C#Cc1ccc(F)nc1)NCc1ccc2c(c1)CN(C1CCC(=O)NC1=O)C2=O (stereo not drawn) [Compound 38]
14,8.00 to 9.00,O=C(C#Cc1ccc(F)nc1F)NCc1ccc2c(c1)CN(C1CCC(=O)NC1=O)C2=O (stereo not drawn) [Compound 41]
15,< 7.00,O=C(C#Cc1ccc2nccn2c1)NCc1ccc2c(c1)CN(C1CCC(=O)NC1=O)C2=O (stereo not drawn) [Compound 45]
16,< 7.00,O=C(C#Cc1ccc([N+](=O)[O-])cc1F)NCc1ccc2c(c1)CN(C1CCC(=O)NC1=O)C2=O (stereo not drawn) [Compound 47]
17,8.00 to 9.00,Nc1cc(F)ccc1C#CC(=O)NCc1ccc2c(c1)CN(C1CCC(=O)NC1=O)C2=O (stereo not drawn) [Compound 50]
18,> 9.00,Cc1ccc(C#CC(=O)NCc2ccc3c(c2)CN(C2CCC(=O)NC2=O)C3=O)cc1[N+](=O)[O-] (stereo not drawn) [Compound 51]
19,> 9.00,Nc1cc(C#CC(=O)NCc2ccc3c(c2)CN(C2CCC(=O)NC2=O)C3=O)ccc1F (stereo not drawn) [Compound 54]
20,> 9.00,O=C(C#Cc1ccc(-c2ccc([N+](=O)[O-])cc2)cc1)NCc1ccc2c(c1)CN(C1CCC(=O)NC1=O)C2=O (stereo not drawn) [Compound 55]
21,> 9.00,Nc1ccc(-c2ccc(C#CC(=O)NCc3ccc4c(c3)CN(C3CCC(=O)NC3=O)C4=O)cc2)cc1 (stereo not drawn) [Compound 56]
22,8.00 to 9.00,O=C(C#Cc1ccccc1O)NCc1ccc2c(c1)CN(C1CCC(=O)NC1=O)C2=O (stereo not drawn) [Compound 58]
23,7.00 to 8.00,O=C(C#Cc1ccc(Cl)nc1)NCc1ccc2c(c1)CN(C1CCC(=O)NC1=O)C2=O (stereo not drawn) [Compound 59]
24,> 9.00,CC(C)(C)OC(=O)N1CCCCC1C#CC(=O)NCc1ccc2c(c1)CN(C1CCC(=O)NC1=O)C2=O (stereo not drawn) [Compound 63]
25,7.00 to 8.00,O=C(C#Cc1c(F)ccnc1F)NCc1ccc2c(c1)CN(C1CCC(=O)NC1=O)C2=O (stereo not drawn) [Compound 68]
26,> 9.00,CC(C)(C)OC(=O)c1ccccc1C#CC(=O)NCc1ccc2c(c1)CN(C1CCC(=O)NC1=O)C2=O (stereo not drawn) [Compound 69]
27,< 7.00,O=C(C#Cc1ccccc1C(=O)O)NCc1ccc2c(c1)CN(C1CCC(=O)NC1=O)C2=O (stereo not drawn) [Compound 75]
28,< 7.00,O=C(C#Cc1cccc(C(=O)O)c1)NCc1ccc2c(c1)CN(C1CCC(=O)NC1=O)C2=O (stereo not drawn) [Compound 76]
29,< 7.00,CC(C)(C)C(=O)OCOC(=O)c1ccccc1C#CC(=O)NCc1ccc2c(c1)CN(C1CCC(=O)NC1=O)C2=O (stereo not drawn) [Compound 77]
